# Measured values taken from US20260083865A1, “PROSTATE SPECIFIC MEMBRANE ANTIGEN (PSMA) LIGANDS AND USE THEREOF” (priority 2022, published 2026).
# Read-outs that look alike come from different tables or passages of the source. Numbered stars: 1 amine (or outer) side, 2 acyl side, 3 side chain; on linkers, the order of the positions; unused ones are H or OH. Bridge positions count the residues as written; N and C are the ends. Square brackets hold non-standard residues; d marks the D form. Peptide text beside a SMILES is read from it. * marks the point of attachment. X3 = O=C(O)CN1CCN(CC(=O)O)CCN(CC(=O)NCCCOCCOCCOCCCN*)CCN(CC(=O)O)CC1; X2 = O=C(O)CN1CCN(CC(=O)O)CCN([C@H](CCC(=O)*)C(=O)O)CCN(CC(=O)O)CC1; DOTA = O=C(O)CN1CCN(CC(=O)O)CCN(CC(=O)*)CCN(CC(=O)O)CC1; Phe(4-Cl) = N[C@@H](Cc1ccc(Cl)cc1)C(=O)O; Ethylenediamine = C(CN[*:2])N[*:1]; X1 = O=C(CC1CCN([*:1])CC1)[*:2]; Suc = O=C(CCC(=O)[*:2])[*:1]; Tle = CC(C)(C)[C@H](N)C(=O)O; Aib = CC(C)(N)C(=O)O; CO = O=C([*:1])[*:2]; NHBu = CCCCN*
# Columns and labels:
# [1] = target: T1, Fc-fusion protein of human PSMA (hPSMA-Fc) (Homo sapiens, UniProt Q04609); test: Surface plasmon resonance assay (Biacore T200, single cycle kinetic); type: binding; conditions: hPSMA-Fc, 25° C., read-out: pKD CAT (converted)
# T1 construct: purchased Acro Biosystems PSA-H5264
# T1 sequence (Q04609 44-750 limits assumed): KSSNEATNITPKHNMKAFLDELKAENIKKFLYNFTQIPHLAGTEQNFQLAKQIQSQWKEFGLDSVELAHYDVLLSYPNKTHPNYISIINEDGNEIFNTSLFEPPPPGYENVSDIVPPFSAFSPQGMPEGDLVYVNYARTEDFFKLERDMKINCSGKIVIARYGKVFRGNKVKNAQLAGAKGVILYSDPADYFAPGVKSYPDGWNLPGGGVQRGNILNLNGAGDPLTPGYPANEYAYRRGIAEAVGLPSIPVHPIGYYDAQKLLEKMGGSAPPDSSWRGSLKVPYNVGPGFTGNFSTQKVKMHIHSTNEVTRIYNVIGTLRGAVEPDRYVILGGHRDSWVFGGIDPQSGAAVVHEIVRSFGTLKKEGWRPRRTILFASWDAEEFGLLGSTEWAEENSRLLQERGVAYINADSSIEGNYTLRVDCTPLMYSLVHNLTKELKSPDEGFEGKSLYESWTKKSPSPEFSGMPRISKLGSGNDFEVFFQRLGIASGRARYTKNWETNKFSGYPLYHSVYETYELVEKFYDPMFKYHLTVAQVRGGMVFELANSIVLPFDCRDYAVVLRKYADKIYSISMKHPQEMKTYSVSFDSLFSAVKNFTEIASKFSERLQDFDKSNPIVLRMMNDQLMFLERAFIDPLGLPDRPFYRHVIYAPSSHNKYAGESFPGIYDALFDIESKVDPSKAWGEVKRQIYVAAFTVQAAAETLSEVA
# Method in brief: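 KD, expressed as pKD, came from 1:1 Langmuir fits of reference- and buffer-blank-subtracted SPR data. The runs were single-cycle kinetics at 25° C in HBST/0.1% DMSO over human PSMA-Fc, captured to ~1000 RU on a peptide-coated CM5 surface and regenerated with 10 mM glycine pH 1.5.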
# PC3-PIP tumor model = test system: PC3-PIP tumor model; design: species or system mice; conditions: mouse, in vivo
# Method in brief: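 Male nude mice bearing shoulder xenografts (5×10^6 PC3-PIP cells, or 5×10^6 or 1×10^7 C4-2 cells) received ~30 MBq of ^111In-labeled compound intravenously via tail vein. SPECT/CT regions of interest for heart, kidney and tumor gave % ID/g, mean of two to three animals per time point, range as error.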
# [2] = target: T2, PSMA-expressing C4-2 cells (Homo sapiens, UniProt Q04609); test: FACS binding assay (competition with 50 nM PSM-0183); conditions: C4-2 cells, read-out: pIC50 [C4-2] CAT (converted)
# T2 construct: PSMA-expressing C4-2 cells (ATCC, Cat. No. CRL-3314) were cultured in RPMI-1640; host or cells: C4-2 cells
# T2 sequence (Q04609 whole entry): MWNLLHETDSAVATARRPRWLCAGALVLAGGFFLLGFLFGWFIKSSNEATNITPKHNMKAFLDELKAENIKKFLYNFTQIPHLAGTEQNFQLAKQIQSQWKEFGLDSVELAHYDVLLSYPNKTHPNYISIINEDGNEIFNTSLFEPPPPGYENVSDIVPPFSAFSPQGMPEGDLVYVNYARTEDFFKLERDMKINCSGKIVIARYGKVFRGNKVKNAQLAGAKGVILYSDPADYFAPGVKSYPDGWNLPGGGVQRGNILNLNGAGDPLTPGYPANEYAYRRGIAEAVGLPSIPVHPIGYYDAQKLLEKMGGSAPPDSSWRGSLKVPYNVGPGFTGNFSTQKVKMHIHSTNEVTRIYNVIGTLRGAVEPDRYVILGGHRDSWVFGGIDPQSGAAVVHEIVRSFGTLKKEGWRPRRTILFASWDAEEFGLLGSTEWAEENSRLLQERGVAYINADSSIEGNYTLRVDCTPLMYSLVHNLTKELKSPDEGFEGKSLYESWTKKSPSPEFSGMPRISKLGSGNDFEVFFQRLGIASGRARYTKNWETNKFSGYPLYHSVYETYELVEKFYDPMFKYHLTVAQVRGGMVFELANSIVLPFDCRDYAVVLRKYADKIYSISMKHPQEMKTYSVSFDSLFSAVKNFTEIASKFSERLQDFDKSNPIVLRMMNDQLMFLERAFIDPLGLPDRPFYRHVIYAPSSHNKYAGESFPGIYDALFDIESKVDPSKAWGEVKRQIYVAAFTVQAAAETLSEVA
# Method in brief: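 Competition format: fluorescent tracer PSM-0183 (50 nM) displaced from PSMA on C4-2 cells by a test compound titration over 1 h at 4 °C. Bound tracer was quantified as flow-cytometric AF488 median fluorescence after washing. Four-parameter logistic fits of MFI data gave IC50 and pIC50.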
# [3] = pKD category for PSMA SPR activity assay
# [4] = SPR, single cycle kinetic, category
# [5] = FACS binding, competition with 50 nM PSM-0183, category
SMILES,"Kd [1, 3] [nM]",AUC ratio [T/K] (PC3-PIP tumor model),Tumor AUC (PC3-PIP tumor model) [% ID/g*h],IC50 ([2]; pIC50 category of FACS binding) [nM],"Kd [1, 4] [nM]","IC50 [2, 5] [nM]"
"C[C@@H](O)[C@H](NC(=O)CN1CCN(CC(=O)O)CCN(CC(=O)O)CCN(CC(=O)O)CC1)C(=O)NC(C)(C)C(=O)N[C@@H](Cc1ccc(Cl)cc1)C(=O)N[C@H]1CSSC[C@@H](C(=O)N[C@H](C(N)=O)C(C)(C)C)NC(=O)[C@H](CC(N)=O)NC(=O)C(C)(C)NC(=O)[C@H](CCCNC(=N)N)NC(=O)[C@H](CCCCN)NC1=O [PSM-0534, DOTA-Thr-Aib-Pcf-[Cys-Lys-Arg-Aib-Asn-Cys]-Tle-NH2] ({DOTA}-T[Aib][Phe(4-Cl)]CKR[Aib]NC[Tle]-NH2; disulfide 4-9)",< 12.6,1.1,220,< 200,,
"C[C@@H](O)[C@H](NC(=O)[C@@H](NC(=O)[C@@H]1CSSC[C@H](NC(=O)[C@H](Cc2ccccc2)NC(=O)C(C)(C)NC(=O)[C@@H](NC(=O)CC2CCN(C(=O)CC[C@H](C(=O)O)N3CCN(CC(=O)O)CCN(CC(=O)O)CCN(CC(=O)O)CC3)CC2)[C@@H](C)O)C(=O)N[C@@H](CCCCN)C(=O)N[C@@H](CCCNC(=N)N)C(=O)NC(C)(C)C(=O)N[C@@H](CC(N)=O)C(=O)N1)C(C)(C)C)C(N)=O [PSM-0218, DOTAGA-Cmp-Thr-Aib-Phe-[Cys-Lys-Arg-Aib-Asn-Cys]-Tle-Thr-NH2] (X2-[X1]T[Aib]FCKR[Aib]NC[Tle]T-NH2; disulfide 5-10)",,1.2,150,,< 12.6,< 200
"C[C@@H](O)[C@H](NC(=O)CC1CCN(C(=O)CN2CCN(CC(=O)O)CCN(CC(=O)O)CCN(CC(=O)O)CC2)CC1)C(=O)NC(C)(C)C(=O)N[C@@H](Cc1ccccc1)C(=O)N[C@H]1CSSC[C@@H](C(=O)N[C@H](C(=O)NCCN)C(C)(C)C)NC(=O)[C@H](CC(N)=O)NC(=O)C(C)(C)NC(=O)[C@H](CCCNC(=N)N)NC(=O)[C@H](CCCCN)NC1=O [PSM-0241, DOTA-Cmp-Thr-Aib-Phe-[Cys-Lys-Arg-Aib-Asn-Cys]-Tle-en] ({DOTA}-[X1]T[Aib]FCKR[Aib]NC[Tle]-Ethylenediamine; disulfide 5-10)",,0.54,300,,< 12.6,< 200
"CCCCNC(=O)N[C@H](C(=O)NC(C)(C)C(=O)N[C@@H](Cc1ccc(Cl)cc1)C(=O)N[C@H]1CSSC[C@@H](C(=O)N[C@H](C(=O)N[C@H](C(=O)N2CCC(CC(=O)N[C@H](CCCCNC(=O)CN3CCN(CC(=O)O)CCN(CC(=O)O)CCN(CC(=O)O)CC3)C(N)=O)CC2)[C@@H](C)O)C(C)(C)C)NC(=O)[C@H](CC(N)=O)NC(=O)C(C)(C)NC(=O)[C@H](CCCNC(=N)N)NC(=O)[C@H](CCCCN)NC1=O)[C@@H](C)O [PSM-0371, nBuCAyl-Thr-Aib-Pcf-[Cys-Lys-Arg-Aib-Asn-Cys]-Tle-Thr-Cmp-lys(DOTA)-NH2] ({NHBu-CO}-T[Aib][Phe(4-Cl)]CKR[Aib]NC[Tle]T[X1][dK](DOTA)-NH2; disulfide 4-9)",< 12.6,0.62,120,< 200,,
"C[C@@H]1NC(=O)[C@H](CCCNC(=N)N)NC(=O)[C@H](CCCCN)NC(=O)[C@@H](NC(=O)[C@H](Cc2ccccc2)NC(=O)C(C)(C)NC(=O)[C@@H](NC(=O)CCC(=O)NCCCOCCOCCOCCCNC(=O)CN2CCN(CC(=O)O)CCN(CC(=O)O)CCN(CC(=O)O)CC2)[C@@H](C)O)CSSC[C@@H](C(=O)N[C@H](C(=O)N[C@H](C(N)=O)[C@@H](C)O)C(C)(C)C)NC(=O)[C@H](CC(N)=O)NC1=O [PSM-0237, DOTA-Ttds-Thr-Aib-Phe-[Cys-Lys-Arg-Ala-Asn-Cys]-Tle-Thr-NH2] ({X3-Suc}-T[Aib]FCKRANC[Tle]T-NH2; disulfide 4-9)",,0.44,180,,< 12.6,< 200
